These results are taken from patent publication US20050164951A1, “Inhibitors for the soluble epoxide hydrolase” (The Regents of the University of California, priority 2003, published 2005).

One assay deals with T1, human sEH (Homo sapiens, UniProt P34913).
T1 construct: made in house; host or cells: baculovirus expression system
T1 sequence (P34913 1-555): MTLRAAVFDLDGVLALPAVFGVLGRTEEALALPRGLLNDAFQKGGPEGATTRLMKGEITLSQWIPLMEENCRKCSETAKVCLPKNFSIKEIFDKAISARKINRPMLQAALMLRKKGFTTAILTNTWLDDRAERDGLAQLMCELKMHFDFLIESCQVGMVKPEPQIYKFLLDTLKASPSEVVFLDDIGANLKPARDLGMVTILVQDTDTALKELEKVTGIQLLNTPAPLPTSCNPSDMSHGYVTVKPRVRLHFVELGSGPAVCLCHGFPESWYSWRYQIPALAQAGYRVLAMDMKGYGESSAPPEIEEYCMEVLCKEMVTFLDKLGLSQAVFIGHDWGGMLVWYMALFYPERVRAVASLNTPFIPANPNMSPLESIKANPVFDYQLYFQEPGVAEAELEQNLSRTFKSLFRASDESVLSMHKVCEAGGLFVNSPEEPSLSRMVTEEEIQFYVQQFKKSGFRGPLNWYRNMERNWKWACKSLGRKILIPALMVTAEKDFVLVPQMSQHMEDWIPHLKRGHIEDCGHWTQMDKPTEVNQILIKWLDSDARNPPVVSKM
The assay can be described thus: Inhibition of recombinant human sEH, IC50 assay with 4-nitrophenyl-trans-2,3-epoxy-3-phenylpropyl carbonate as substrate. In kind it is biochemical. Conditions: for IC90: 0.24 μM enzyme. How it is done: (§1) Assays were performed in triplicate. […] The curve was generated from at least three separate runs, each in triplicate, to obtain the standard deviation (SD) given in Table 1 thru Table 4.

The target in another assay is T2, mouse sEH (Mus musculus, UniProt P34914).
T2 construct: made in house; host or cells: baculovirus expression system
T2 sequence (P34914 1-554): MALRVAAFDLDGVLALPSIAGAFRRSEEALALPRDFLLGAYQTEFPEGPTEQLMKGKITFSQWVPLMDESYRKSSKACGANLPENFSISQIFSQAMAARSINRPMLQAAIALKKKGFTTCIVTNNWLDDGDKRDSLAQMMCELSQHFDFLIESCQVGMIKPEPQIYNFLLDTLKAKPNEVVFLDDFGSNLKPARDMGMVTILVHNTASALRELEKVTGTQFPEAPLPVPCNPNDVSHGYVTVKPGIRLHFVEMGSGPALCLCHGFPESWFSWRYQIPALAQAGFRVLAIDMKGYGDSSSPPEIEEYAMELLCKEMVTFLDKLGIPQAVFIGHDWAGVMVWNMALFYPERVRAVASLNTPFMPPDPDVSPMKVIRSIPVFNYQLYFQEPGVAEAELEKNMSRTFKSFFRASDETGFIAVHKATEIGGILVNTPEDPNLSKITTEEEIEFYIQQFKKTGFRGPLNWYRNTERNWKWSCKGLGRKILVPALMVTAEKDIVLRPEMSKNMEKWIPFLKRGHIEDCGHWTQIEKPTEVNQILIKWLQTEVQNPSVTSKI
The assay can be described thus: Inhibition of recombinant mouse sEH, IC50 assay with 4-nitrophenyl-trans-2,3-epoxy-3-phenylpropyl carbonate as substrate. In kind it is biochemical. Conditions: for IC90: 0.12 μM enzyme. How it is done:
as §1

[1] abbreviates: Tables 17a and b, read-out: IC50 (μM) Human sEH.
Where [2] appears, read: Tables 17a and b, read-out: IC50 (μM) Mouse sEH.
The mark [3] stands for this setting: Table 5, 5 min preincubation, pH 7.4, 30° C., means ± SD.
The mark [4] stands for this setting: Table 5, […] enzyme, 5 min preincubation, pH 7.4, 30° C., means ± SD, read-out: Human sEH IC50.
Where [5] appears, read: Table 5, […] enzyme, 5 min preincubation, pH 7.4, 30° C., means ± SD, read-out: Mouse sEH IC50.
Setting [6] is: Table 8, established protocols, read-out: IC50 (μM) Human sEH.
The mark [7] stands for this setting: Table 8, established protocols, read-out: IC50 (μM) Mouse sEH.
Setting [8] is: Table 7, established protocols, read-out: IC50 (μM) Human sEH.
Where [9] appears, read: Table 7, established protocols, read-out: IC50 (μM) Mouse sEH.
Setting [10] is: Table 9, established protocols, read-out: IC50 (μM) Human sEH.
Where [11] appears, read: Table 9, established protocols, read-out: IC50 (μM) Mouse sEH.

Read-outs that look alike come from different tables or passages of the source.

As to `CCCCC1COC(Nc2cccc(Cl)c2)=N1` (stereo not drawn) [Compound 980], the half-maximal inhibitory concentration (IC50) (in general, the concentration that gives 50% inhibition) was found to be 60 ± 0.01 µM on human sEH (setting [1]) and 49 ± 0.01 µM at mouse sEH (setting [2]).

As to `CCOC(=O)CCCCCCCCCOC(=O)CCCNC(=O)NC12CC3CC(CC(C3)C1)C2` [Compound 880], the IC90 (in general, the concentration needed for an effect of 90%) on human sEH (setting [3]) is 680 ± 10 nM; on mouse sEH (setting [3]) it was 260 ± 30 nM. Moreover, the half-inhibitory concentration (IC50) on human sEH (setting [4]) was determined as 0.1 ± 0.01 µM; at mouse sEH (setting [5]) it was 0.05 ± 0.01 µM.

With `O=C(CCCNC(=O)NC12CC3CC(CC(C3)C1)C2)NC(C(=O)N1CCCC1C(=O)O)c1c[nH]cn1` (stereo not drawn) [Compound 1012], the results for the IC50 on human sEH (setting [1]) and at mouse sEH (setting [2]) were 100 ± 0.01 µM and 0.09 ± 0.01 µM, respectively.

`O=C(NCCCCCOCCC(F)(F)F)NC12CC3CC(CC(C3)C1)C2` [Compound 957]: the IC50 on human sEH (setting [1]) is 0.23 ± 0.01 µM; on mouse sEH (setting [2]), 0.05 ± 0.01 µM.

`CCCCCCCCCCCC(=O)NC12CC3CC(CC(C3)C1)C2` [Compound 989]: the results for the IC50 at human sEH (setting [6]) and on mouse sEH (setting [7]) were 5 ± 0.3 µM and 0.05 ± 0.01 µM, respectively.

Turning to `O=C(NCCCCCOCCOCCOCc1ccccc1)NC12CC3CC(CC(C3)C1)C2` [Compound 951], the results for the IC50 on human sEH (setting [8]) and at mouse sEH (setting [9]) were 0.1 ± 0.01 µM and 0.05 ± 0.01 µM, respectively.

For the compound `COC(=O)CCCCCCCCCCCNC(=O)NC12CC3CC(CC(C3)C1)C2` [Compound 780, 1-(1-adamantyl)-3-(11-methoxycarbonylundecyl)urea], the IC50 was 0.1 ± 0.01 µM on human sEH (Table 4, […] enzyme, 5 min preincubation, pH 7.4, 30° C., means ± SD, read-out: IC50 (μM) Human sEH) and 0.05 ± 0.01 µM on mouse sEH (Table 4, […] enzyme, 5 min preincubation, pH 7.4, 30° C., means ± SD, read-out: IC50 (μM) Mouse sEH).

As to `O=C(NCCCCCOCCOCCOCCO)NC12CC3CC(CC(C3)C1)C2` [Compound 975], the results for the 50% inhibitory concentration (IC50) on human sEH (setting [8]) and at mouse sEH (setting [9]) were 0.1 ± 0.01 µM and 0.05 ± 0.01 µM, respectively.

Turning to `CCCCCOC(=O)CCCn1ccn(C23CC4CC(CC(C4)C2)C3)c1=O` [Compound 958], the half-maximal inhibitory concentration (IC50) at human sEH (setting [1]) was 17 ± 0.01 µM; at mouse sEH (setting [2]), 0.7 ± 0.01 µM.

`O=C(NC1CCC(OCCOCCOCC(F)(F)F)CC1)NC12CC3CC(CC(C3)C1)C2` (stereo not drawn) [Compound 985]: the IC50 was 0.1 ± 0.01 µM at human sEH (setting [10]) and 0.05 ± 0.01 µM at mouse sEH (setting [11]).

`O=C(Nc1ccc2ccccc2c1)NC1CCCCC1` [Compound 998]: the IC50 at human sEH (setting [1]) was found to be 3.7 ± 0.01 µM; on mouse sEH (setting [2]), 0.1 ± 0.01 µM.

In the case of `COC(=O)CNC(=O)NC1CCCCC1` [Compound 549], the IC50 was determined as 70 ± 6 µM at human sEH (Table 1, […] enzyme, 5 min preincubation, pH 7.4, 30° C., [S] = 40 μM, means ± SD of three experiments, read-out: IC50 (μM) Human sEH) and 33 ± 2 µM on mouse sEH (Table 1, […] enzyme, 5 min preincubation, pH 7.4, 30° C., [S] = 40 μM, means ± SD of three experiments, read-out: IC50 (μM) Mouse sEH).

Turning to `CCCCCOC(=O)CCCCC(=O)NC12CC3CC(CC(C3)C1)C2` [Compound 834], the IC50 stood at 2.4 ± 0.2 µM at human sEH (setting [6]) and 0.34 ± 0.01 µM on mouse sEH (setting [7]).

As to `C=CCOC1CCC(NC(=O)NC23CC4CC(CC(C4)C2)C3)CC1` (stereo not drawn) [Compound 982], the results for the IC50 at human sEH (setting [10]) and on mouse sEH (setting [11]) were 0.1 ± 0.01 µM and 0.05 ± 0.01 µM, respectively.

For the compound `CCCCC(C#N)OC(=O)CCCNC(=O)NC12CC3CC(CC(C3)C1)C2` (stereo not drawn) [Compound 944], the IC50 at human sEH was 0.2 ± 0.01 µM; on mouse sEH (setting [2]), 0.05 ± 0.01 µM.

Consider `CSC(NC(=O)C(NC(=O)CCCNC(=O)NC12CC3CC(CC(C3)C1)C2)c1c[nH]cn1)C(=O)O` (stereo not drawn) [Compound 1013], for which the IC50 stood at 1.5 ± 0.01 µM at human sEH (setting [1]) and 0.05 ± 0.01 µM at mouse sEH (setting [2]).

For `CCOC(=O)CCOC(=O)CCCNC(=O)NC12CC3CC(CC(C3)C1)C2` [Compound 876], the IC90 at human sEH (setting [3]) was 9000 ± 2000 nM; at mouse sEH (setting [3]), 630 ± 20 nM. The IC50 on human sEH (setting [4]) was determined as 0.54 ± 0.05 µM; on mouse sEH (setting [5]) it was 0.05 ± 0.01 µM.

`CCCCCOC(=O)C1CCC(NC(=O)NC23CC4CC(CC(C4)C2)C3)CC1` (stereo not drawn) [Compound 863]: the results for the concentration for half-maximal inhibition (IC50) at human sEH (setting [10]) and at mouse sEH (setting [11]) were 0.12 ± 0.01 µM and 0.05 ± 0.01 µM, respectively.

As to `CCCCCOC(=O)CCCCC(=O)Nc1cccc(Cl)c1` [Compound 987], the IC50 on human sEH (setting [1]) was 5.9 ± 0.01 µM; at mouse sEH (setting [2]), 1.7 ± 0.01 µM.
